According to patent publication US9061015B2, “Stable solid dispersion of a derivative of vinca alkaloid and process for manufacturing it” (PIERRE FABRE MEDICAMENT, priority 2004, dated 2015):

Experiments:
[1] = Required storage temperature (stability); format: physicochemical; details: regardless of form (amorphous or crystalline) and degree of division
[2] = Physicochemical stability on storage at 25° C./60% RH: variation of the content of impurities compared with t0; details: after 6 months 25° C./60% RH compared with t0
Method: Variation of the content of impurities (in % relative) after 6 months 25° C./60% RH compared with t0.
Other hydrophilic polymers such as polyethyleneglycols were tested.

temperature at which it must be kept [1]: below −15 °C
4-0-deacetylvinorelbine impurity, variation of the content [2]: +0.05 % relative
6′-N-methylvinorelbine impurity, variation of the content [2]: +0.05 % relative
6′-N-oxyvinorelbine impurity, variation of the content [2]: +0.37 % relative
S/D6 impurity, variation of the content [2]: +1.02 % relative
Total impurities, variation of the content [2]: +1.87 % relative
SMILES: CCC1=C[C@@H]2CN(C1)Cc1c([nH]c3ccccc13)[C@@](C(=O)OC)(c1cc3c(cc1OC)N(C)[C@H]1[C@@](O)(C(=O)OC)[C@H](OC(C)=O)[C@]4(CC)C=CCN5CC[C@]31[C@@H]54)C2 [Vinorelbine ditartrate, vinorelbine ditartrate]
